Results taken from the supplement of paper PMC10307832.

Assays:
Assay in all cases: relative viability (nuclei count vs DMSO), 5 days (fraction); higher = more cells survive
[1] = tested on: NCI-H2342
In short: (§1)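 Lung cancer cell lines were pin-tool dosed in 1536-well plates on the day after seeding, with either a lone drug or a fixed anchor-drug dose plus five library-drug doses (not always all listed) in √10 steps. Nuclei were counted on 4× images after 5 days. Relative viability is the ratio of treated-well to vehicle-well nuclei counts, with each value a median of duplicate plates.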

[2] = tested on: HCC-15
In short: as §1

[3] = tested on: A-427
In short: as §1

[4] = tested on: HCC-827
In short: as §1

[5] = tested on: HARA
In short: as §1

[6] = tested on: 201T
In short: as §1

[7] = tested on: NCI-H1975
In short: as §1

[8] = tested on: EKVX
In short: as §1

[9] = tested on: BEN
In short: as §1

[10] = tested on: NCI-H596
In short: as §1

[11] = tested on: NCI-H23
In short: as §1

[12] = tested on: NCI-H1437
In short: as §1

[13] = tested on: NCI-H358
In short: as §1

[14] = tested on: NCI-H1666
In short: as §1

[15] = tested on: NCI-H650
In short: as §1

[16] = tested on: HCC-44
In short: as §1

[17] = tested on: SW 900
In short: as §1

[18] = tested on: NCI-H838
In short: as §1

[19] = tested on: NCI-H1792
In short: as §1

[20] = tested on: NCI-H441
In short: as §1

SMILES: O=c1cc(N2CCOCC2)oc2c(-c3cccc4c3sc3ccccc34)cccc12 + NC(=O)Nc1cc(-c2cccc(F)c2)sc1C(=O)N[C@H]1CCCNC1 [AZD7762] (partner 0.2 µM)
- relative viability ([1]; first compound 0.01 µM): 0.566
- relative viability ([1]; first compound 0.03162 µM): 0.483
- relative viability ([1]; first compound 0.1 µM): 0.366
- relative viability ([1]; first compound 0.3162 µM): 0.45
- relative viability ([1]; first compound 1 µM): 0.433
- relative viability ([2]; first compound 0.01 µM): 1.23
- relative viability ([2]; first compound 0.03162 µM): 1.46
- relative viability ([2]; first compound 0.1 µM): 1.3
- relative viability ([2]; first compound 0.3162 µM): 1.26
- relative viability ([2]; first compound 1 µM): 1.54
- relative viability ([3]; first compound 0.01 µM): 0.731
- relative viability ([3]; first compound 0.03162 µM): 0.767
- relative viability ([3]; first compound 0.1 µM): 0.529
- relative viability ([3]; first compound 0.3162 µM): 0.795
- relative viability ([3]; first compound 1 µM): 0.735
- relative viability ([4]; first compound 0.01 µM): 0.26
- relative viability ([4]; first compound 0.03162 µM): 0.179
- relative viability ([4]; first compound 0.1 µM): 0.133
- relative viability ([4]; first compound 0.3162 µM): 0.184
- relative viability ([4]; first compound 1 µM): 0.261
- relative viability ([5]; first compound 0.01 µM): 0.501
- relative viability ([5]; first compound 0.03162 µM): 0.303
- relative viability ([5]; first compound 0.1 µM): 0.302
- relative viability ([5]; first compound 0.3162 µM): 0.343
- relative viability ([5]; first compound 1 µM): 0.357
- relative viability ([6]; first compound 0.01 µM): 0.624
- relative viability ([6]; first compound 0.03162 µM): 0.619
- relative viability ([6]; first compound 0.1 µM): 0.615
- relative viability ([6]; first compound 0.3162 µM): 0.585
- relative viability ([6]; first compound 1 µM): 0.583
- relative viability ([7]; first compound 0.01 µM): 0.676
- relative viability ([7]; first compound 0.03162 µM): 0.735
- relative viability ([7]; first compound 0.1 µM): 0.554
- relative viability ([7]; first compound 0.3162 µM): 0.808
- relative viability ([7]; first compound 1 µM): 0.553
- relative viability ([8]; first compound 0.01 µM): 0.654
- relative viability ([8]; first compound 0.03162 µM): 0.757
- relative viability ([8]; first compound 0.1 µM): 0.445
- relative viability ([8]; first compound 0.3162 µM): 0.878
- relative viability ([8]; first compound 1 µM): 0.695
- relative viability ([9]; first compound 0.01 µM): 0.576
- relative viability ([9]; first compound 0.03162 µM): 0.86
- relative viability ([9]; first compound 0.1 µM): 0.289
- relative viability ([9]; first compound 0.3162 µM): 0.735
- relative viability ([9]; first compound 1 µM): 0.626
- relative viability ([10]; first compound 0.01 µM): 1.19
- relative viability ([10]; first compound 0.03162 µM): 1.2
- relative viability ([10]; first compound 0.1 µM): 0.75
- relative viability ([10]; first compound 0.3162 µM): 1.18
- relative viability ([10]; first compound 1 µM): 1.08
- relative viability ([11]; first compound 0.01 µM): 0.306
- relative viability ([11]; first compound 0.03162 µM): 0.309
- relative viability ([11]; first compound 0.3162 µM): 0.307
- relative viability ([11]; first compound 1 µM): 0.272
- relative viability ([12]; first compound 0.01 µM): 1.22
- relative viability ([12]; first compound 0.03162 µM): 1.12
- relative viability ([12]; first compound 0.1 µM): 1.12
- relative viability ([12]; first compound 0.3162 µM): 1.1
- relative viability ([12]; first compound 1 µM): 1.04
- relative viability ([13]; first compound 0.01 µM): 0.49
- relative viability ([13]; first compound 0.03162 µM): 0.517
- relative viability ([13]; first compound 0.1 µM): 0.354
- relative viability ([13]; first compound 0.3162 µM): 0.445
- relative viability ([13]; first compound 1 µM): 0.519
- relative viability ([14]; first compound 0.01 µM): 0.842
- relative viability ([14]; first compound 0.03162 µM): 0.886
- relative viability ([14]; first compound 0.1 µM): 0.797
- relative viability ([14]; first compound 0.3162 µM): 0.675
- relative viability ([14]; first compound 1 µM): 0.7
- relative viability ([15]; first compound 0.01 µM): 1.11
- relative viability ([15]; first compound 0.03162 µM): 1.15
- relative viability ([15]; first compound 0.3162 µM): 1.15
- relative viability ([15]; first compound 1 µM): 1.24
- relative viability ([16]; first compound 0.01 µM): 1.03
- relative viability ([16]; first compound 0.03162 µM): 1.08
- relative viability ([16]; first compound 0.1 µM): 0.973
- relative viability ([16]; first compound 0.3162 µM): 1.01
- relative viability ([16]; first compound 1 µM): 0.966
- relative viability ([17]; first compound 0.03162 µM): 0.748
- relative viability ([17]; first compound 0.1 µM): 0.378
- relative viability ([17]; first compound 0.3162 µM): 0.702
- relative viability ([17]; first compound 1 µM): 0.497
- relative viability ([18]; first compound 0.01 µM): 0.918
- relative viability ([18]; first compound 0.03162 µM): 0.963
- relative viability ([18]; first compound 0.1 µM): 0.934
- relative viability ([18]; first compound 0.3162 µM): 0.93
- relative viability ([18]; first compound 1 µM): 0.924
- relative viability ([19]; first compound 0.01 µM): 0.75
- relative viability ([19]; first compound 0.03162 µM): 0.682
- relative viability ([19]; first compound 0.3162 µM): 0.673
- relative viability ([19]; first compound 1 µM): 0.733
- relative viability ([20]; first compound 0.01 µM): 1.06
- relative viability ([20]; first compound 0.03162 µM): 1.03
- relative viability ([20]; first compound 0.1 µM): 1.09
- relative viability ([20]; first compound 0.3162 µM): 1.2
- relative viability ([20]; first compound 1 µM): 1.01

SMILES: COc1nc(C)cnc1NS(=O)(=O)c1cccnc1-c1ccc(-c2nnco2)cc1 [Zibotentan] + NC(=O)Nc1cc(-c2cccc(F)c2)sc1C(=O)N[C@H]1CCCNC1 [AZD7762] (partner 0.2 µM)
- relative viability ([1]; first compound 0.08 µM): 0.556
- relative viability ([1]; first compound 0.253 µM): 0.507
- relative viability ([1]; first compound 0.8 µM): 0.439
- relative viability ([1]; first compound 2.53 µM): 0.517
- relative viability ([2]; first compound 0.08 µM): 1.3
- relative viability ([2]; first compound 0.253 µM): 1.28
- relative viability ([2]; first compound 0.8 µM): 1.18
- relative viability ([2]; first compound 2.53 µM): 1.26
- relative viability ([3]; first compound 0.08 µM): 0.905
- relative viability ([3]; first compound 0.253 µM): 0.666
- relative viability ([3]; first compound 0.8 µM): 0.655
- relative viability ([3]; first compound 2.53 µM): 0.834
- relative viability ([4]; first compound 0.08 µM): 0.215
- relative viability ([4]; first compound 0.253 µM): 0.183
- relative viability ([4]; first compound 0.8 µM): 0.183
- relative viability ([4]; first compound 2.53 µM): 0.223
- relative viability ([5]; first compound 0.08 µM): 0.254
- relative viability ([5]; first compound 0.8 µM): 0.302
- relative viability ([5]; first compound 2.53 µM): 0.416
- relative viability ([6]; first compound 0.08 µM): 0.644
- relative viability ([6]; first compound 0.253 µM): 0.604
- relative viability ([6]; first compound 0.8 µM): 0.624
- relative viability ([6]; first compound 2.53 µM): 0.569
- relative viability ([7]; first compound 0.08 µM): 0.767
- relative viability ([7]; first compound 0.253 µM): 0.626
- relative viability ([7]; first compound 0.8 µM): 0.728
- relative viability ([7]; first compound 2.53 µM): 0.659
- relative viability ([8]; first compound 0.08 µM): 0.742
- relative viability ([8]; first compound 0.253 µM): 0.648
- relative viability ([8]; first compound 0.8 µM): 0.718
- relative viability ([8]; first compound 2.53 µM): 0.766
- relative viability ([9]; first compound 0.08 µM): 0.7
- relative viability ([9]; first compound 0.253 µM): 0.588
- relative viability ([9]; first compound 0.8 µM): 0.682
- relative viability ([9]; first compound 2.53 µM): 0.677
- relative viability ([10]; first compound 0.08 µM): 1.13
- relative viability ([10]; first compound 0.253 µM): 1.01
- relative viability ([10]; first compound 0.8 µM): 1.06
- relative viability ([10]; first compound 2.53 µM): 1.22
- relative viability ([11]; first compound 0.08 µM): 0.224
- relative viability ([11]; first compound 0.253 µM): 0.238
- relative viability ([11]; first compound 0.8 µM): 0.196
- relative viability ([11]; first compound 2.53 µM): 0.26
- relative viability ([12]; first compound 0.08 µM): 1.14
- relative viability ([12]; first compound 0.253 µM): 0.897
- relative viability ([12]; first compound 0.8 µM): 1.05
- relative viability ([12]; first compound 2.53 µM): 1.15
- relative viability ([13]; first compound 0.08 µM): 0.48
- relative viability ([13]; first compound 0.253 µM): 0.405
- relative viability ([13]; first compound 0.8 µM): 0.383
- relative viability ([13]; first compound 2.53 µM): 0.667
- relative viability ([14]; first compound 0.08 µM): 0.866
- relative viability ([14]; first compound 0.253 µM): 0.795
- relative viability ([14]; first compound 0.8 µM): 0.898
- relative viability ([14]; first compound 2.53 µM): 0.791
- relative viability ([15]; first compound 0.08 µM): 1.09
- relative viability ([15]; first compound 0.253 µM): 0.892
- relative viability ([15]; first compound 0.8 µM): 0.943
- relative viability ([15]; first compound 2.53 µM): 1.11
- relative viability ([16]; first compound 0.08 µM): 1.01
- relative viability ([16]; first compound 0.253 µM): 0.962
- relative viability ([16]; first compound 0.8 µM): 0.968
- relative viability ([16]; first compound 2.53 µM): 1.03
- relative viability ([17]; first compound 0.08 µM): 0.68
- relative viability ([17]; first compound 0.253 µM): 0.561
- relative viability ([17]; first compound 0.8 µM): 0.495
- relative viability ([17]; first compound 2.53 µM): 0.725
- relative viability ([18]; first compound 0.08 µM): 0.91
- relative viability ([18]; first compound 0.253 µM): 0.909
- relative viability ([18]; first compound 0.8 µM): 0.912
- relative viability ([18]; first compound 2.53 µM): 0.956
- relative viability ([19]; first compound 0.08 µM): 0.899
- relative viability ([19]; first compound 0.253 µM): 0.604
- relative viability ([19]; first compound 0.8 µM): 0.373
- relative viability ([19]; first compound 2.53 µM): 0.822
- relative viability ([20]; first compound 0.08 µM): 1.3
- relative viability ([20]; first compound 0.253 µM): 1.08
- relative viability ([20]; first compound 0.8 µM): 0.994
- relative viability ([20]; first compound 2.53 µM): 1.12
